Experimental data reported in article PMC6761534 (Antimicrobial Agents and Chemotherapy, 2019).

Key:
Type in all cases: cell-based, Mycobacterium tuberculosis
M. tuberculosis H37Rv = tested on: M. tuberculosis H37Rv
[1] = tested on: M. tuberculosis c subunit mutant strain D28A
[2] = tested on: M. tuberculosis c subunit mutant strain D28G
[3] = tested on: M. tuberculosis c subunit mutant strain D28V
[4] = tested on: M. tuberculosis c subunit mutant strain E61D
[5] = tested on: M. tuberculosis c subunit mutant strain A63P
[6] = tested on: M. tuberculosis c subunit mutant strain I66M

COc1cc([C@](O)(CCN(C)C)[C@H](c2cc(OC(C)C)cnc2OC)c2cc3cc(Br)ccc3nc2OC)cc(OC)n1 [compound 5366]
Mutation frequency (M. tuberculosis H37Rv): 2.54 × 10^−8 | No. of atpE mutants/total no. of mutants isolated (M. tuberculosis H37Rv): 28/28 | MIC90 fold increase in M. tuberculosis c subunit mutant strain D28A [1]: 333 fold | MIC90 fold increase in M. tuberculosis c subunit mutant strain D28G [2]: 300 fold | MIC90 fold increase in M. tuberculosis c subunit mutant strain D28V [3]: 250 fold | MIC90 fold increase in M. tuberculosis c subunit mutant strain E61D [4]: 45 fold | MIC90 fold increase in M. tuberculosis c subunit mutant strain A63P [5]: 50 fold | MIC90 fold increase in M. tuberculosis c subunit mutant strain I66M [6]: 50 fold

COc1cc([C@](O)(CCN(C)C)[C@@H](c2cc3cc(Br)ccc3nc2OC)c2cccc3c2OCCO3)cc(OC)n1 [compound 5316]
Mutation frequency (M. tuberculosis H37Rv): 6.36 × 10^−9 | No. of atpE mutants/total no. of mutants isolated (M. tuberculosis H37Rv): 7/7 | MIC90 fold increase in M. tuberculosis c subunit mutant strain D28A [1]: 200 fold | MIC90 fold increase in M. tuberculosis c subunit mutant strain D28G [2]: 200 fold | MIC90 fold increase in M. tuberculosis c subunit mutant strain D28V [3]: 200 fold | MIC90 fold increase in M. tuberculosis c subunit mutant strain E61D [4]: 105 fold | MIC90 fold increase in M. tuberculosis c subunit mutant strain A63P [5]: 72 fold | MIC90 fold increase in M. tuberculosis c subunit mutant strain I66M [6]: 42 fold

COc1nc2ccc(Br)cc2cc1[C@@H](c1ccccc1)[C@@](O)(CCN(C)C)c1cccc2ccccc12 [BDQ, Bedaquiline, reference compound]
MIC90 fold increase in M. tuberculosis c subunit mutant strain D28A [1]: >400 fold | MIC90 fold increase in M. tuberculosis c subunit mutant strain D28G [2]: >400 fold | MIC90 fold increase in M. tuberculosis c subunit mutant strain D28V [3]: >400 fold | MIC90 fold increase in M. tuberculosis c subunit mutant strain E61D [4]: 312 fold | MIC90 fold increase in M. tuberculosis c subunit mutant strain A63P [5]: >400 fold | MIC90 fold increase in M. tuberculosis c subunit mutant strain I66M [6]: 262 fold

COc1cc([C@](O)(CCN(C)C)[C@@H](c2cc3cc(Br)ccc3nc2OC)c2cc(OC)nc(OC)c2OC)cc(OC)n1 [TBAJ-876]
Mutation frequency (M. tuberculosis H37Rv): 4.23 × 10^−9 | No. of atpE mutants/total no. of mutants isolated (M. tuberculosis H37Rv): 5/5 | MIC90 fold increase in M. tuberculosis c subunit mutant strain D28A [1]: 140 fold | MIC90 fold increase in M. tuberculosis c subunit mutant strain D28G [2]: 104 fold | MIC90 fold increase in M. tuberculosis c subunit mutant strain D28V [3]: 132 fold | MIC90 fold increase in M. tuberculosis c subunit mutant strain E61D [4]: 100 fold | MIC90 fold increase in M. tuberculosis c subunit mutant strain A63P [5]: 48 fold | MIC90 fold increase in M. tuberculosis c subunit mutant strain I66M [6]: 59 fold

COc1cc([C@](O)(CCN(C)C)[C@@H](c2cc3cc(Br)ccc3nc2OC)c2ccnc(OC)c2OC)cc(OC)n1 [compound 5307]
Mutation frequency (M. tuberculosis H37Rv): 3.00 × 10^−8 | No. of atpE mutants/total no. of mutants isolated (M. tuberculosis H37Rv): 33/34 | MIC90 fold increase in M. tuberculosis c subunit mutant strain D28A [1]: 357 fold | MIC90 fold increase in M. tuberculosis c subunit mutant strain D28G [2]: 235 fold | MIC90 fold increase in M. tuberculosis c subunit mutant strain D28V [3]: 360 fold | MIC90 fold increase in M. tuberculosis c subunit mutant strain E61D [4]: 100 fold | MIC90 fold increase in M. tuberculosis c subunit mutant strain A63P [5]: 150 fold | MIC90 fold increase in M. tuberculosis c subunit mutant strain I66M [6]: 87 fold
